Experimental data from PubChem BioAssay (NCI).
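Briefly, cells in 96-well plates were exposed to five compound concentrations for 48 h, and endpoints were estimated by linear interpolation. Here, GI50 denotes the concentration required for 50% inhibition of growth. TGI denotes the concentration required for complete inhibition of growth.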

Assays:
Experiment in all cases: NCI anticancer screen, dose series, 48 h
M14 melanoma = tested on: M14 melanoma
U251 CNS = tested on: U251 CNS
A549 NSCLC = tested on: A549 NSCLC
NCI-H460 lung = tested on: NCI-H460 lung
SF-539 CNS = tested on: SF-539 CNS
EKVX NSCLC = tested on: EKVX NSCLC
UACC-62 melanoma = tested on: UACC-62 melanoma
OVCAR-3 ovarian = tested on: OVCAR-3 ovarian
RXF 393 renal = tested on: RXF 393 renal
NCI-H226 lung = tested on: NCI-H226 lung

Row | SMILES | GI50 (M14 melanoma) [nM] | TGI (M14 melanoma) [µM] | GI50 (U251 CNS) [µM] | TGI (U251 CNS) [µM] | GI50 (A549 NSCLC) [nM] | TGI (A549 NSCLC) [µM] | GI50 (NCI-H460 lung) [nM] | TGI (NCI-H460 lung) [µM] | GI50 (SF-539 CNS) [nM] | TGI (SF-539 CNS) [µM] | GI50 (EKVX NSCLC) [µM] | TGI (EKVX NSCLC) [µM] | GI50 (UACC-62 melanoma) [nM] | TGI (UACC-62 melanoma) [µM] | GI50 (OVCAR-3 ovarian) [nM] | TGI (OVCAR-3 ovarian) [µM] | GI50 (RXF 393 renal) [nM] | TGI (RXF 393 renal) [µM] | GI50 (NCI-H226 lung) [µM] | TGI (NCI-H226 lung) [µM]
1 | CCOC(=O)c1c(C(F)(F)F)n([O-])c2ccc(OC)cc2[n+]1=O | 3750 | 24.6 | 4.31 | > 100 | 8570 | > 100 | 3800 | 15.7 | 7970 | 27 | 3.67 | 60.5 | 2690 | 12 | 4310 | 44.8 | 23800 | > 100 | 4.07 | 36
2 | COc1ccc2nc3ccccc3c(NCCCCCCN(C)CCCl)c2c1 | – | 2.3 | – | 1.75 | – | 3.34 | – | 1.46 | – | 2.11 | – | 3.45 | – | 1.61 | – | 3.12 | – | 1.23 | – | 1.55
3 | COc1ccc(NC(=O)c2sc3nc(C)c(C(O)c4ccccc4)cc3c2N)cc1 (centres undefined) | 2520 | 38.3 | 3.58 | > 100 | 700 | > 100 | 357 | 1.65 | 2240 | 6.65 | 4.38 | > 100 | 2930 | > 100 | 2480 | 13.8 | 2250 | 49.1 | 4.87 | > 100
4 | Cc1ccc(S(=O)(=O)N2CCc3ccc(O)c4c3C2Cc2cc(Cl)ccc2-4)cc1 (centres undefined) | 880 | 2.96 | 0.972 | 3.77 | 1160 | 5.44 | 1030 | 3.74 | 792 | 2.83 | 2.52 | 28.8 | 962 | 3.77 | 733 | 1.63 | 830 | 2.49 | 2.63 | 8.4
5 | COc1ccc(/C=C/c2n[nH]c3ccc(N4CCOC4=O)cc23)cc1 | 1880 | 10.5 | 2.51 | > 100 | 1660 | 14.2 | 1950 | 11.8 | 990 | 3.33 | 3.39 | 36.1 | 2600 | 6.83 | 2970 | 9.42 | 1870 | 3.8 | 2.44 | 15.4
6 | CCC(C)C(NC(=O)C1CCCN1C(=O)C(NC(=O)C(C)N)C(C)C)C(N)=O (centres undefined) | > 100000 | > 100 | > 100 | > 100 | > 100000 | > 100 | > 100000 | > 100 | – | > 100 | 77.2 | > 100 | > 100000 | > 100 | > 100000 | > 100 | > 100000 | > 100 | > 100 | > 100
7 | CCn1cnc2c(Nc3cccc(Cl)c3)nc(N[C@@H]3CCCC[C@@H]3N)nc21 | 1440 | 2.98 | 1.37 | 3.3 | 2090 | 8.6 | 1230 | 3.7 | 1420 | 2.8 | 1.6 | 3.92 | 1490 | 3.59 | 1180 | 4.4 | 1350 | 2.89 | 2 | 5.95
8 | N.N.NCCCCN.O=C([O-])C1(C(=O)[O-])CCC1.O=C([O-])C1(C(=O)[O-])CCC1.[Pt+4].[Pt+4] | > 100000 | > 100 | > 100 | > 100 | > 100000 | > 100 | 48500 | > 100 | > 100000 | > 100 | > 100 | > 100 | 82200 | > 100 | > 100000 | > 100 | > 100000 | > 100 | > 100 | > 100
9 | O=C(COc1ccccc1)NS(=O)(=O)c1ccccc1 | – | > 100 | – | > 100 | – | > 100 | – | > 100 | – | > 100 | – | > 100 | – | > 100 | – | > 100 | – | > 100 | – | > 100
